# Laboratory results reported in patent US20040167162A1, “Uses for anti-malarial therapeutic agents” (priority 2001, published 2004).
# Where a name gives a salt, the structure may show the parent alone. Read-outs that look alike come from different tables or passages of the source.
# How the values were obtained:
# adenovirus = details: cited from earlier work
# influenza viruses = details: cited from earlier work
# human corona virus = details: cited from earlier work
# rhinovirus [1] = details: in particular human tracheal epithelial cells, rhinovirus group 14; cited from earlier work
# ICAM-1 = details: treated cells; cited from earlier work
# rhinovirus [2] = assay: Blocking of rhinovirus infection of epithelial cells; effective inhibitory concentrations (Tables 1 and 2, FIG. 3); assay type: cell-based
# From the text: (§1) Rhinovirus capable of viral replication causes the release of the pro-inflammatory […] chemokines, IP-10 and RANTES from infected epithelial cells.
# (§2) For purposes of illustration, the effects of targeted delivery as opposed to systemic delivery of a representative anti-malarial, hydroxychloroquine, for prevention of rhinovirus infection is compared. As shown in Tables 1 and 2 and in FIG. 3, the effective inhibitory concentrations of this agent ranges from about 50 to 1000 microM (or about 20 to 400 micrograms/ml). Safe oral dosing of anti-malarials, such as chloroquine and hydroxychloroquine yields serum levels far below these ranges: 0.6 to 0.9 microM for chloroquine and 1.4 to 1.5 microM for hydroxychloroquine (MacKenzie, A H, “Pharmacologic actions of the 4-aminoquinoline compounds”, Am J Med, 1983, July: 5-10). Moreover, the inventor has noted that oral or systemic administration of HCQ cannot provide adequate plasma levels of HCQ to achieveefficacious results. Even at doses nearly twice that used in humans, peak serum concentrations following intravenous of administration of 10 mg/kg HCQ in rats was only 2 mcg/ml (FIG. 4); in dogs, peak whole blood concentrations were less than 3 mcg/ml (FIG. 5).
# [3] = cited from earlier work
# IP-10/RANTES = assay: Effect of HCQ on IP-10/RANTES production in primary human epithelial cells with exposure to HRV-16; assay type: cell-based
# From the text: FIG. 1 graphically depicts the effect of 50 μm HCQ in the elaboration of IP-10 and RANTES in primary human epithelial cells with exposure to human rhinovirus type 16.
# as §1
# (§3) For example, treatment with hydroxychloroquine blocks the elaboration of the pro-inflammatory chemokines, IP-10 and RANTES from both primary tonsillar and immortalized epithelial cell lines (Table 1 & 2, FIG. 1 & 2). Since these chemokines figure prominently in generation of inflammatory responses and symptoms, this effect has important therapeutic implications.
# IP-10 and RANTES = assay: HCQ preincubation of BEAS-2B epithelial cells exposed to HRV-16, assayed for IP-10 and RANTES; assay type: cell-based, human; details: for IP-10: 6 hours preincubation / IP-10: 24 hours preincubation / RANTES: 6 hours preincubation: BEAS-2B
# Description: FIG. 2 depicts graphically the effect of varying concentrations of HCQ preincubation on the elaboration of […] and RANTES in BEAS-2B epithelial cells exposed to human rhinovirus-16.
# as §1, §3
# Eosinophil = Eosinophil total superoxide production (FIG. 3); assay type: cell-based
# From the text: FIG. 3 graphically depicts the effect of HCQ on Eosinophil total Superoxide production. In FIG. 3, nil refers to control, i.e., the absence of HCQ; PMA refers to phorbol myristic acetate; PAF refers to platelet activating factor, and SE refers to standard error of the mean. The data in FIG. 3 are presented as means±SE; n=3. The * indicates p<0.05; ** indicates p<0.01.
# Anti-malarial agents also block the secondary aspects of rhinovirus infections. Without wishing to be bound, it is believed that they are inhibit by blocking the secondary events of viral infections.
# [4] = parameters: species or system rats; details: rat, in vivo, iv, 10 mg/kg
# From the text: FIG. 4 graphically depicts the mean whole blood concentration of HCQ following single day intravenous doses to male and female rats.
# as §2
# [5] = parameters: species or system dogs; details: dog, in vivo, iv
# From the text: FIG. 5 graphically depicts the mean whole blood concentration of HCQ following single day intravenous doses to male and female dogs.
# as §2
# [6] = test system: antigen-induced early (EAR) and late airway responses (LAR) and airway hyperresponsiveness (AHR); details: aerosolized; total dose of only 10 mg/d; cited from earlier work
# asthma = details: oral; cited from earlier work
# [7] = in vivo, po; cited from earlier work
compound,measurement,setting,value
Cl.N [ammonium chloride],cellular infection by adenovirus,adenovirus,block cellular infection
same,cellular infection by influenza viruses,influenza viruses,block cellular infection
same,infection of human corona virus,human corona virus,block infection
CO/C1=C\C(C)=C\[C@@H](C)[C@@H](O)[C@@H](C)C/C(C)=C/C=C/[C@H](OC)[C@@H]([C@@H](C)[C@@H](O)[C@H](C)[C@@]2(O)C[C@@H](O)[C@H](C)[C@@H](C(C)C)O2)OC1=O [bafilomycin A1],cellular infection by adenovirus,adenovirus,block cellular infection
same,cellular infection by influenza viruses,influenza viruses,block cellular infection
same,infection of human corona virus,human corona virus,block infection
same,infection by rhinovirus,rhinovirus [1],inhibit infection
same,expression of ICAM-1,ICAM-1,reduces expression
CCN(CC)CCCC(C)Nc1ccnc2cc(Cl)ccc12 (stereo not shown) [chloroquine],rhinovirus infection of epithelial cells,rhinovirus [2],block rhinovirus infection
same,cellular infection by adenovirus,adenovirus,block cellular infection
same,cellular infection by influenza viruses,influenza viruses,block cellular infection
CCN(CCO)CCCC(C)Nc1ccnc2cc(Cl)ccc12 (stereo not shown) [hydroxychloroquine sulfate],solubility in water,[3],readily soluble in water
hydroxychloroquine [HCQ],IP-10: hours of preincubation 24,"IP-10/RANTES; HRV-16 + 50 microM HCQ, 24 hours of preincubation, primary human epithelial cells",31 pg/mL
same,IP-10: hours of preincubation 48,"IP-10/RANTES; HRV-16 + 50 microM HCQ, 48 hours of preincubation, primary human epithelial cells",112 pg/mL
same,RANTES: hours of preincubation 48,"IP-10/RANTES; HRV-16 + HCQ, 48 hours of preincubation, primary human epithelial cells",509 pg/mL
same,release of pro-inflammatory CXC chemokines,"IP-10/RANTES; primary epithelial cells treated, then infected with RV",do not release
same,IP-10: 6 hours preincubation,IP-10 and RANTES; HRV-16 + 0.01 μM HCQ,3084 pg/mL
same,IP-10: 24 hours preincubation,IP-10 and RANTES; HRV-16 + 0.01 μM HCQ,2506 pg/mL
same,RANTES: 6 hours preincubation,IP-10 and RANTES; HRV-16 + 0.01 μM HCQ,3326 pg/mL
same,IP-10: 6 hours preincubation,IP-10 and RANTES; HRV-16 + 0.1 μM HCQ,2914 pg/mL
same,IP-10: 24 hours preincubation,IP-10 and RANTES; HRV-16 + 0.1 μM HCQ,1814 pg/mL
same,RANTES: 6 hours preincubation,IP-10 and RANTES; HRV-16 + 0.1 μM HCQ,3128 pg/mL
same,IP-10: 6 hours preincubation,IP-10 and RANTES; HRV-16 + 1 μM HCQ,3045 pg/mL
same,IP-10: 24 hours preincubation,IP-10 and RANTES; HRV-16 + 1 μM HCQ,2098 pg/mL
same,RANTES: 6 hours preincubation,IP-10 and RANTES; HRV-16 + 1 μM HCQ,1994 pg/mL
same,IP-10: 6 hours preincubation,IP-10 and RANTES; HRV-16 + 50 μM HCQ,31 pg/mL
same,IP-10: 24 hours preincubation,IP-10 and RANTES; HRV-16 + 50 μM HCQ,31 pg/mL
same,RANTES: 6 hours preincubation,IP-10 and RANTES; HRV-16 + 50 μM HCQ,0 pg/mL
same,release of pro-inflammatory CXC chemokines,IP-10 and RANTES; pre-incubation of immortalized epithelial cells (BEAS-2B),has the same effect
same,concentration at which IL-5 or PAF induced eosinophil superoxide is inhibited,Eosinophil,at least 0.5 mM
same,concentration at which IL-5 or PAF induced eosinophil superoxide is inhibited,Eosinophil; conversion of the mM value,about 200 mcg/ml
same,rhinovirus infection of epithelial cells,rhinovirus [2],block rhinovirus infection
same,peak serum concentrations,[4],2 µg/mL
same,peak whole blood concentrations,[5],less than 3 mcg/ml
same,effect in asthmatic sheep,[6],therapeutic effects
same,time of treatment after which therapeutic effect begins,asthma,> 22 weeks
same,serum levels,[7],1400 to 1500 nM
